Legend:
Assay type in all cases: cell-based
[1] = tested on: recombinant CHO cell line; assay: Cell viability of recombinant CHO culture, Trypan blue dye-exclusion
Protocol: (§1) At first, the optimal conditions related to butyrate concentration and temperature in a laboratory scale were determined. Preliminary experiments aimed at optimizing the Na-butyrate concentration were performed in a 1 L culture of the recombinant CHO cell line (1×10^6 cells/ml), in order to achieve the best tc-uPA (HMW and LMW) production and the higher cell viability after 5 days of cultivation in spinner-flasks.
(§2) In table 1 are reported the cell viability and the uPA yield after 5 days cultivation in 1 L Spinner-flask culture at 37° C. and at different Na-butyrate concentrations. uPA activity was followed by a chromogenic assay using the Pefachrome® UK (54-46) (Pentapharm, LTD, Basel, Switzerland) as chromogenic substrate, according to the manufacturer's instructions; the cell viability was followed every day and measured microscopically after Trypan blue dye-exclusion method, as described in Doyle et al. A, Griffiths, J B and Newell, D G (Eds.) (1994), in “Cell & Tissue Culture: Laboratory Procedures”. John Wiley & Sons. New York.
(§3) A second set of experiments was performed at 1.2 mM butyrate, in a 5-days fermentation to determine the optimal temperature in a 2 L culture (1.5-2×10^6 cells/ml) of the recombinant CHO cell line in bioreactor.

[2] = tested on: recombinant CHO cell line; assay: as above; conditions: 1.2 mM butyrate, 32° C., after 12 days, 2 L bioreactor
[3] = tested on: recombinant CHO cell line; assay: tc-uPA activity in culture of recombinant CHO cells, chromogenic assay (Pefachrome UK); conditions: 1.2 mM butyrate, 32° C., after 12 days, 2 L bioreactor
[4] = tested on: recombinant CHO cell line; assay: as above; conditions: for Activity of tc-uPA: 1 L Spinner-flask culture, 37° C., 5 days; for Activity on the chromogenic substrate: average of four fermentations
Protocol: as §1, §2, §3
When the cellular density reached values of about 2×10^6 living cells/ml, the cells were separated from the exhausted medium by tangential filtration (or centrifugation). Cells were then resuspended in the bioreactor in the same original volume of fresh medium CHOMaster® with the addition of sodium butyrate to achieve a final concentration of 1.2 mM.
The production of active u-PA (tc-UPA HMW and LMW) was monitored by a chromogenic test on a specific substrate, Pefachrome® UK. A progressive increase of the activity was observed up to maximal values as high as 7000 IU/ml, achieved after 4-5 days of fermentation. At this point the cells were harvested and subsequently discarded and the exhausted culture medium, containing tc-uPA, was further processed for purification.

Compound: CCCC(=O)[O-].[Na+] [Na-Butyrate, sodium butyrate]
- Cell viability ([1]; 0.6 mM Na-Butyrate, 1 L Spinner-flask culture, 37° C., 5 days): 83%
- Cell viability ([1]; 1.2 mM Na-Butyrate, 1 L Spinner-flask culture, 37° C., 5 days): 76%
- Cell viability ([1]; 1.2 mM Na-Butyrate, 32° C., 5 days, 2 L bioreactor): 84%
- Cell viability ([1]; 1.2 mM Na-Butyrate, 34° C., 5 days, 2 L bioreactor): 67%
- Cell viability ([1]; 1.2 mM Na-Butyrate, 37° C. (control), 5 days, 2 L bioreactor): 53%
- Cell viability ([1]; 2.5 mM Na-Butyrate, 1 L Spinner-flask culture, 37° C., 5 days): 56%
- Cell viability ([1]; 1 day after addition of 1.2 mM Na-butyrate, 34° C., 2 L bioreactor, average of four fermentations): 87 ± 6%
- Cell viability ([1]; 2 days after addition of 1.2 mM Na-butyrate, 34° C., 2 L bioreactor, average of four fermentations): 81 ± 12%
- Cell viability ([1]; 3 days after addition of 1.2 mM Na-butyrate, 34° C., 2 L bioreactor, average of four fermentations): 78 ± 15%
- Cell viability ([1]; 4 days after addition of 1.2 mM Na-butyrate, 34° C., 2 L bioreactor, average of four fermentations): 72 ± 14%
- Cell viability ([1]; 5 days after addition of 1.2 mM Na-butyrate, 34° C., 2 L bioreactor, average of four fermentations): 67 ± 10%
- Cell viability [2]: 63%
- activity (tc-uPA) [3]: 3961 U/ml
- Activity of tc-uPA ([4]; 0.6 mM Na-Butyrate): 526 IU/ml
- Activity of tc-uPA ([4]; 1.2 mM Na-Butyrate): 959 IU/ml
- Activity of tc-uPA (5 days cultivation) ([4]; 1.2 mM Na-Butyrate, 32° C., 2 L bioreactor): 800 IU/ml
- Activity of tc-uPA (5 days cultivation) ([4]; 1.2 mM Na-Butyrate, 34° C., 2 L bioreactor): 5043 IU/ml
- Activity of tc-uPA (5 days cultivation) ([4]; 1.2 mM Na-Butyrate, 37° C. (control), 2 L bioreactor): 1830 IU/ml
- maximal activity on Pefachrome UK ([4]; 1.2 mM sodium butyrate, 34° C., after 4-5 days of fermentation, 2 L bioreactor): ≤ 7000 IU/ml
- Activity of tc-uPA ([4]; 2.5 mM Na-Butyrate): 361 IU/ml
- Activity on the chromogenic substrate ([4]; 1 day after addition of 1.2 mM Na-butyrate, 34° C., 2 L bioreactor): 155 ± 23%
- Activity on the chromogenic substrate ([4]; 2 days after addition of 1.2 mM Na-butyrate, 34° C., 2 L bioreactor): 662 ± 32%
- Activity on the chromogenic substrate ([4]; 3 days after addition of 1.2 mM Na-butyrate, 34° C., 2 L bioreactor): 1995 ± 13%
- Activity on the chromogenic substrate ([4]; 4 days after addition of 1.2 mM Na-butyrate, 34° C., 2 L bioreactor): 3170 ± 23%
- Activity on the chromogenic substrate ([4]; 5 days after addition of 1.2 mM Na-butyrate, 34° C., 2 L bioreactor): 5043 ± 13%

Reference: patent US20030040095A1, “Method for the production of pharmaceutically active recombinant proteins” (priority 2001, published 2003)
